Measurements as given in ChEMBL document CHEMBL1150228, “Synthesis of a novel lysophosphatidylcholine” (J Nat Prod, 2001).

Biological target: T1, 3-hydroxy-3-methylglutaryl-coenzyme A reductase (Homo sapiens, UniProt P04035)
T1 sequence (P04035 whole entry): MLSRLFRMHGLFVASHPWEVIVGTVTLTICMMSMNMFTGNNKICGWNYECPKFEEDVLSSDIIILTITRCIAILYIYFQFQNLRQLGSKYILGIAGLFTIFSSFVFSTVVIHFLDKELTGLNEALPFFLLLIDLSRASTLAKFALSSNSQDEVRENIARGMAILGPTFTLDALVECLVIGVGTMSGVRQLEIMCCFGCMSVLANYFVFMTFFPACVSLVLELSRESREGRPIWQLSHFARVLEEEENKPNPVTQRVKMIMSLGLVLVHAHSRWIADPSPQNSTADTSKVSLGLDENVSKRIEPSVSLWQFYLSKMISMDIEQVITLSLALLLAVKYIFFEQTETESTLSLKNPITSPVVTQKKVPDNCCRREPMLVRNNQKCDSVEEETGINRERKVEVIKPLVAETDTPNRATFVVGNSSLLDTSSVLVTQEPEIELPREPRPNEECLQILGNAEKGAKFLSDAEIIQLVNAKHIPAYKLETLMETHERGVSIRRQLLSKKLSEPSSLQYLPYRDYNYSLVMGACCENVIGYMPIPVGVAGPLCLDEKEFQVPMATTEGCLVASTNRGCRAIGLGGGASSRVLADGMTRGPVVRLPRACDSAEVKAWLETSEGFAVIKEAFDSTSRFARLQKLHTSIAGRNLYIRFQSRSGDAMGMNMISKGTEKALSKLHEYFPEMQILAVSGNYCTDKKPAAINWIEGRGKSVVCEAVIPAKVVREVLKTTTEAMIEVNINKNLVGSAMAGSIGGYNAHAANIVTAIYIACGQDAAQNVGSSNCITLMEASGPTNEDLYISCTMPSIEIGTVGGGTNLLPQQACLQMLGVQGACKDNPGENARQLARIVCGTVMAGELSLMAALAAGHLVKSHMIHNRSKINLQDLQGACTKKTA
Assay: Inhibition of HMG CoA reductase

- IC50: 112 µM
SMILES: CCCCCC[C@@H]1C[C@@H]1CCCCCCCCCC(=O)OCC(O)COP(=O)([O-])OCC[N+](C)(C)C (relative stereo) [LYSOPHOSPHATIDYLCHOLINE]
